The text below walks through data of patent US8268355B2, “Silica particle comprising an organolanthanide compound, preparation process therefor and uses thereof” (Commissariat a l'Energie Atomique, priority 2008, dated 2012).

Data set [1] can be described thus: Potentiometric titration of the ligand with KOH: deprotonation constants. Type of data set: physicochemical. The conditions noted are these: titration with KOH in KCl 0.1M, 298 K. An excerpt:
(§1) The three sulfonates are fully deprotonated under the experimental conditions used. The deprotonation constants of H9thqtcn-SO3^3+ are defined as Kai=[H9-iL]^(1-i) [H]^+/[H8-iL]^(2-i)+. Analysis of the potentiometric curves enabled precise determination of 6 deprotonation constants (pKa8=2.9(2), pKa7=5.34(5), pKa6=8.01(8), pKa5=8.78(1), pKa4=8.98(4), pKa3=10.25(2)), whereas it was possible only to obtain the sum pKa1+pKa2=(22.51(3)).

The nature of the next data set: Solubility observations. Format: physicochemical. As to conditions: aqueous, potentiometric titration conditions.
Excerpt: as §1
The elemental analyses of all the complexes are compatible with the presence of analytically pure [Ln(thqtcn)] species. These complexes are insoluble in all the commonly used laboratory solvents.
As hoped, this ligand results in Ln(III) complexes that are water-soluble at physiological pHs.

Data set [2] is described as follows: Stability of the Gd complex (pGd) by UV-visible spectrophotometry in HEPES buffer pH 7.4. Type of data set: physicochemical. As to conditions: pH 7.4, HEPES, [M]total=1 mM, [bpatcn]total=10 mM. On the procedure: Appreciably, the interaction between the lanthanide ions and the ligand was monitored by UV-visible spectrophotometry for a representative ion of intermediate size, namely Gd in dilute aqueous solutions, buffered with HEPES at pH 7.4. The value of pGd (pM=−log [M]free at pH 7.4, [M]total=1 mM and [bpatcn]total=10 mM), which allows a simple and direct comparison of the stabilities of the complexes under physiological conditions, found for thqtcn-SO3^6−(19) is similar to the value reported for the gadolinium complexes of diethylenetriaminepentaacetic acid (dtpa) (pGd=19.6), which are widely acknowledged as non-toxic.

For data set [3] the following is noted: gadolinium complexes of dtpa; cited from earlier work.

As to “1,4,7-tris[2-(5-sulfo-8-hydroxyquinolinyl)methyl]-1,4,7-triaza-cyclononane [H6thqtcn-SO3]”, in data set [1], the pKa3 was 10.25(2), the pKa4 is reported as 8.98(4), the pKa5 is listed as 8.78(1) and the pKa6 is 8.01(8). Also, in data set [1], the pKa7 is reported as 5.34(5), the pKa8 is 2.9(2) and the “sum pKa1+pKa2” value was 22.51(3). Moreover, the “solubility of the ligand” value in “Solubility observations” is on record as “high solubility”. In addition, the “pGd (pM=-log [M]free)” value in data set [2] is 19.

For the molecule `O=C(O)CN(CCN(CC(=O)O)CC(=O)O)CCN(CC(=O)O)CC(=O)O` [dtpa, diethylenetriaminepentaacetic acid], the “pGd (reported value)” value in data set [3] was 19.6.
